Assay results reported in patent US10039828B2, “Compositions comprising salbutamol sulphate” (MEXICHEM AMANCO HOLDING S.A. DE C.V., priority 2011, dated 2018).
One block for each compound: values may come before it.

Assay: apparent surfactant dissolution (solubility) in propellant, viewed with the naked eye
Format: physicochemical
Settings: for Solubility of sorbitan monooleate in the propellant / Solubility of sorbitan trioleate in the propellant / Solubility of oleic acid in the propellant: ambient temperature (19.5-25.0° C.)
Experimental: A number of experiments were conducted to investigate the solubility of various surfactants in R-134a and R-152a. The apparent surfactant dissolution in each propellant was studied at ambient temperature (19.5-25.0° C.) by adding a known quantity of surfactant to a plastic-coated, pressure-resistant, clear glass aerosol bottle. A continuous flow valve was then crimped onto the bottle. A total of 10 grams of each propellant was filled into each aerosol bottle such that the surfactant concentration ranged from 0 to 5% w/w. After addition of propellant, the contents were sonicated for 10 mins and viewed with the naked eye for dissolution.

Solubility of sorbitan monooleate in the propellant (propellant R-134a): Up to 0.03 % w/w
Solubility of sorbitan monooleate in the propellant (propellant R-152a): Up to 0.05 % w/w
Compound: sorbitan monooleate

Solubility of sorbitan trioleate in the propellant (propellant R-134a): Up to 0.05 % w/w
Solubility of sorbitan trioleate in the propellant (propellant R-152a): Up to 0.05 % w/w
Compound: sorbitan trioleate

solubility in R-152a compared with R-134a (R-152a versus R-134a): much higher
solubility in R-152a compared with any other surfactant (R-152a, versus the other surfactants tested): much higher
Solubility of oleic acid in the propellant (propellant R-134a): Up to 0.05 % w/w
Solubility of oleic acid in the propellant (propellant R-152a): Up to 2.5 % w/w
Compound: CCCCCCCC/C=C\CCCCCCCC(=O)O [oleic acid]
